In ChEMBL document CHEMBL4706736, “Modulating Androgen Receptor in the Therapeutic Intervention for Prostate Cancer and Kennedy's Disease” (2021) one finds inhibition data, which are given here for eleven compounds.

Where a SMILES comes first, the peptide text is derived from it. [ ]: non-standard residue; d: D form. The star is where a group is joined. X1 = O=C(COc1c(-c2csc(N3CCOCC3)n2)ccc(F)c1F)NCCCCCCN*; X4 = O=C(COc1c(-c2csc(N3CCOCC3)n2)ccc(F)c1F)NCCCCN*; X2 = Fc1ccc(-c2csc(N3CCOCC3)n2)c(OCCOCCOCCN*)c1F; X3 = O=C(NCCCCCCN*)c1cccc2sc(N3CCOCC3)nc12; Dip = N[C@H](C(=O)O)C(c1ccccc1)c1ccccc1; Chg = N[C@H](C(=O)O)C1CCCCC1; NMeA = CN[C@@H](C)C(=O)O

For this assay, the system named is CWR22R. Nature of the assay: Antiproliferative activity against human 22Rv1 cells assessed as reduction in cell viability at 10 uM incubated for 48 hrs by automated cell counting analysis relative to control. It counts as functional.
Regarding `CN[C@@H](C)C(=O)N[C@H](C(=O)N1Cc2cc(OCCOCCOc3c(-c4csc(N5CCOCC5)n4)ccc(F)c3F)ccc2C[C@H]1C(=O)N[C@@H]1CCCc2ccccc21)C(C)(C)C`, the inhibition at 10 µM is over 50%.

Take `O=C1CCC(N2C(=O)c3cccc(NCCCCCCNC(=O)c4cn(-c5csc(N6CCOCC6)n5)cn4)c3C2=O)C(=O)N1` (stereo unspecified): the inhibition at 10 µM was 0%.

With `Cc1ncsc1-c1ccc([C@H](C)NC(=O)[C@@H]2C[C@@H](O)CN2C(=O)[C@@H](NC(=O)CCCCNC(=O)COc2c(-c3csc(N4CCOCC4)n3)ccc(F)c2F)C(C)(C)C)cc1`, the inhibition at 10 µM was under 50%.

In the case of `NCCCCCCCCCCNc1cccc2c1C(=O)N(C1CCC(=O)NC1=O)C2=O` (stereo unspecified), the inhibition at 10 µM is under 50%.

Take `COc1cc(C(=O)NCCOCCOCCOc2c(-c3csc(N4CCOCC4)n3)ccc(F)c2F)ccc1NC(=O)[C@@H]1N[C@@H](CC(C)(C)C)[C@](C#N)(c2ccc(Cl)cc2F)[C@H]1c1cccc(Cl)c1F`: the inhibition at 10 µM is over 50%.

For the compound `CN[C@@H](C)C(=O)N[C@H](C(=O)N1Cc2cc(OCCOCCOCCOc3c(-c4csc(N5CCOCC5)n4)ccc(F)c3F)ccc2C[C@H]1C(=O)N[C@@H]1CCCc2ccccc21)C(C)(C)C`, the inhibition at 10 µM is over 50%.

For `COc1cc(C(=O)NCCCCNC(=O)COc2c(-c3csc(N4CCOCC4)n3)ccc(F)c2F)ccc1NC(=O)[C@@H]1N[C@@H](CC(C)(C)C)[C@](C#N)(c2ccc(Cl)cc2F)[C@H]1c1cccc(Cl)c1F`, the inhibition at 10 µM was over 50%.

With `CN[C@@H](C)C(=O)N[C@H](C(=O)N1CCC[C@H]1C(=O)N[C@H](C(=O)NCCCCCCNC(=O)COc1c(-c2csc(N3CCOCC3)n2)ccc(F)c1F)C(c1ccccc1)c1ccccc1)C1CCCCC1` (H-[NMeA][Chg]P[Dip]-X1), the inhibition at 10 µM was over 50%.

For the compound `CN[C@@H](C)C(=O)N[C@H](C(=O)N1CCC[C@H]1C(=O)N[C@H](C(=O)NCCOCCOCCOc1c(-c2csc(N3CCOCC3)n2)ccc(F)c1F)C(c1ccccc1)c1ccccc1)C1CCCCC1` (H-[NMeA][Chg]P[Dip]-X2), the inhibition at 10 µM was over 50%.

With `CN[C@@H](C)C(=O)N[C@H](C(=O)N1CCC[C@H]1C(=O)N[C@H](C(=O)NCCCCCCNC(=O)c1cccc2sc(N3CCOCC3)nc12)C(c1ccccc1)c1ccccc1)C1CCCCC1` (H-[NMeA][Chg]P[Dip]-X3), the inhibition at 10 µM is over 50%.

Turning to `CN[C@@H](C)C(=O)N[C@H](C(=O)N1CCC[C@H]1C(=O)N[C@H](C(=O)NCCCCNC(=O)COc1c(-c2csc(N3CCOCC3)n2)ccc(F)c1F)C(c1ccccc1)c1ccccc1)C1CCCCC1` (H-[NMeA][Chg]P[Dip]-X4), the inhibition at 10 µM was over 50%.
